The source of these data is patent publication US20050148647A1, “Hemodialysis solutions and uses thereof” (priority 2003, published 2005).

A short description of the first data set: in vivo. Particulars: dog, plasma.
Experimental: (§1) Supplementation with casein hydrolysate was evaluated in a dog dialysis model. Two dogs were dialyzed: a control animal underwent four hours of standard hemodialysis. The second animal was dialyzed with dialysate enriched with vitamin-free casein acid hydrolysate under otherwise identical conditions. The dogs were anesthetized and ventilated; venous access for dialysis was achieved via two peripheral venous lines, right femoral and left external jugular. A routine, bicarbonate-based dialysis solution, Centrisol™, was used with both animals and diluted with filtered water by the hemodialysis machine to the appropriate concentration. […] The animals were dialyzed for four hours with a blood flow rate of 300 ml/min and a dialysate flow rate of 500 ml/min. Plasma and dialysate samples were from both animals at t=0 and t=4 hours were analyzed for amino acid content. Additional samples were taken from the serum post-filter and from the dialysate immediately pre-filter.
Molecule `N[C@@H](Cc1c[nH]cn1)C(=O)O` [histidine] displayed a concentration at 0 h of 68 µM and a concentration at 4 h of 88 µM.
`N[C@@H](CC(=O)O)C(=O)O` [aspartate] came in with a concentration at 0 h of 2 µM and a concentration at 4 h of 12 µM.
The molecule `N[C@@H](Cc1ccc(O)cc1)C(=O)O` [tyrosine] registered a concentration at 0 h of 28 µM and a concentration at 4 h of 48 µM.
In turn, `NCCCC[C@H](N)C(=O)O` [lysine] displayed a concentration at 0 h of 98 µM and a concentration at 4 h of 198 µM.
Turning to `CC[C@H](C)[C@H](N)C(=O)O` [isoleucine], the concentration at 0 h stood at 46 µM and the concentration at 4 h came to 138 µM.
`C[C@H](N)C(=O)O` [alanine] registered a concentration at 0 h of 658 µM and a concentration at 4 h of 712 µM.
The matching figures for `N[C@@H](CO)C(=O)O` [serine]: 154 µM and 154 µM.
The matching figures for `C[C@@H](O)[C@H](N)C(=O)O` [threonine]: 108 µM and 128 µM.
`O=C(O)[C@@H]1CCCN1` [proline] came in with a concentration at 0 h of 336 µM and a concentration at 4 h of 428 µM.
Molecule `N[C@@H](Cc1c[nH]c2ccccc12)C(=O)O` [tryptophan] gave a concentration at 0 h of 52 µM and a concentration at 4 h of 52 µM.
`NCC(=O)O` [glycine] returned a concentration at 0 h of 306 µM and a concentration at 4 h of 260 µM.
The matching figures for `N[C@@H](CS)C(=O)O` [cysteine]: 8 µM and 12 µM.
In the case of `N[C@@H](Cc1ccccc1)C(=O)O` [phenylalanine], the concentration at 0 h amounted to 34 µM and the concentration at 4 h was determined as 82 µM.
The matching figures for `N=C(N)NCCC[C@H](N)C(=O)O` [arginine]: 132 µM and 148 µM.
Take `CC(C)C[C@H](N)C(=O)O` [leucine]: the concentration at 0 h was 126 µM and the concentration at 4 h is 290 µM.
For `CSCC[C@H](N)C(=O)O` [methionine], the concentration at 0 h came to 44 µM and the concentration at 4 h turned out to be 86 µM.
The molecule `CC(C)[C@H](N)C(=O)O` [valine] showed a concentration at 0 h of 118 µM and a concentration at 4 h of 242 µM.

Another data set in a line: dog dialysis model: hemodialysis with casein hydrolysate-enriched dialysate, plasma amino acid content.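 Note: anesthetized dogs on 4 h hemodialysis with bicarbonate dialysate, one enriched with vitamin-free casein acid hydrolysate, control animal on standard dialysis, plasma amino acids measured at 0 and 4 h.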 Particulars: casein group, over the course of dialysis.
Experimental: as §1
For `N[C@@H](CO)C(=O)O` [serine], the “direction of change of plasma concentration of the amino acid (in words)” value was “remained the same concentration”.
As to `NCC(=O)O` [glycine], the “direction of change of plasma concentration of the amino acid (in words)” value is reported as “decreased”.
